Consider 20 molecules from patent US10273248B2, “Glucose uptake inhibitors” (Kadmon Corporation LLC, priority 2015, dated 2019).

Experiment [1] concerns HT1080 cells. The experiment in a line: Cell proliferation assay, single agents and combinations, HT1080. As to conditions: Homo sapiens; HT-1080 cells; read-out: IC50 as a single agent. It counts as cell-based. As to the method:
(§1) Cell Proliferation and Cell Death Assays:
(§2) HT1080 cells (or other cell types) were plated in 96-well format at cell densities suitable for culture from 24-72 hrs. For IC50 of cellular proliferation, cells were fixed with TCA and stained with SRB to quantify relative viability. At the end of the specified assay time, the percentage of drug-treated cells was calculated relative to the DMSO control. For cell death assays, viability was assessed relative to the 0-hour timepoint

Experiment [2] deals with HT1080 cells. Format: cell-based. As to the method:
as §1, §2

Experiment [3] deals with Jurkat. Kind of experiment: Proliferation assay, Jurkat. Format: cell-based. As to conditions: Homo sapiens, 72 hrs. As to the method:
(§3) As previously discussed, glucose is the major energy source for cancer cells and, compared to normal cells, cancer cells rely on increased rates of glycolysis for survival and cell growth. […] Table 2 summarizes these findings for multiple compounds:
as §1, §2

Experiment [4] relates to MOLT-4. The experiment in a line: Proliferation assay, MOLT-4. It counts as cell-based. As to conditions: Homo sapiens, 72 hrs. As to the method: as §3, §1, §2
For experiment [5], the system named is glycolysis in HT1080 cells. Kind of experiment: Glycolysis assay: oligomycin plus compound, cellular ATP by Cell Titer Glo. It counts as cell-based. As to conditions: one hour; for IC50: Homo sapiens, HT-1080, 1 h, 10 μM oligomycin, class symbols. The gist of the method: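 Confluent HT1080 cells treated 1 h with compound plus 10 μM oligomycin to block mitochondrial ATP, so remaining ATP reflects glycolysis. Cellular ATP read by Cell Titer-Glo luminescence; IC50 derived from dose-response curves.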
In general terms: Cellular ATP, detected with luciferase, serves as a proxy for viable cell number.

The subject of experiment [6] is U937. The experiment in a line: Proliferation assay, U937. It counts as cell-based. As to conditions: Homo sapiens, U-937; 72 hrs. As to the method: as §3, §1, §2
Experiment [7] has as its system MOG-induced experimental autoimmune encephalitis (EAE). Kind of experiment: Mouse prophylactic MOG-EAE model. It counts as in vivo. As to conditions: dosed orally day 3 to day 25, compared to vehicle control (FIG. 9). As to the method:
Mouse Prophylactic MOG-EAE Model:
Performed at Hooke laboratories. Briefly, mice were immunized with MOG peptide on day 0 and subsequently injected with pertussis toxin. Compounds were dosed orally beginning on day 3 continuing until day 25.

[8] abbreviates: HT1080 cells, 10 μM Ex. 31 or 25 μM H2O2.

Where two headings read alike, the source gives them in different places.

Take `CN(C)CC[C@H](CSc1ccccc1)Nc1ccc(S(=O)(=O)NC(=O)c2ccc(N3CCN(Cc4ccccc4-c4ccc(Cl)cc4)CC3)cc2)cc1[N+](=O)[O-]` [ABT-737, reference compound]: the IC50 in experiment [1] was approximately 8500 nM. For the same molecule, the “cell death as single agents” value in experiment [2] (HT-1080 cells) is reported as “neither Ex. 31 nor ABT-737 (10 M) caused cell death”.
For `CC(C)NC(=O)COc1cccc(-c2nc3c(c(Nc4ccc(-c5cn[nH]c5)cc4)n2)COC3)c1` [Example 1, 2-(3-(4-((4-(1H-pyrazol-4-yl)phenyl)amino)-5,7-dihydrofuro[3,4-d]pyrimidin-2-yl)phenoxy)-N-isopropylacetamide], the IC50 was 630 nM in experiment [3], 1620 nM in experiment [4] and 10 to 100 nM in experiment [5].
Regarding `CC(C)NC(=O)COc1cccc(-c2nc(Nc3ccc(-c4cn[nH]c4)cc3)c3ncn(C)c3n2)c1` [Example 5, 2-(3-(6-((4-(1H-pyrazol-4-yl)phenyl)amino)-9-methyl-9H-purin-2-yl)phenoxy)-N-isopropylacetamide], the 50% inhibitory concentration (IC50) in experiment [3] is 397 nM; in experiment [5] it was 251 to 500 nM.
With `CC(C)NC(=O)COc1cccc(-c2nc(Nc3ccc(-c4cn[nH]c4)cc3)c3sccc3n2)c1` [Example 7, 2-(3-(4-((4-(1H-pyrazol-4-yl)phenyl)amino)thieno[3,2-d]pyrimidin-2-yl)phenoxy)-N-isopropylacetamide], the IC50 is 500 nM in experiment [3], 388 nM in experiment [6], 823 nM in experiment [4] and 10 to 100 nM in experiment [5]. The “onset and end clinical score” value in experiment [7] is on record as “either delayed the onset or lowered the end clinical score”.
Regarding `O=C(COc1cccc(-c2nc(Nc3ccc(-c4cn[nH]c4)cc3)c3occc3n2)c1)NC1CC1` [Example 21], the IC50 in experiment [3] is 9400 nM; in experiment [5], 501 to 1000 nM.
As for `O=C(COc1cccc(-c2nc(Nc3ccc(-c4cn[nH]c4)cc3)c3sccc3n2)c1)NC1CCC1` [Example 23], the IC50 in experiment [3] is 162 nM; in experiment [5], 101 to 250 nM.
Turning to `O=C(COc1cccc(-c2nc(Nc3ccc(-c4cn[nH]c4)cc3)c3sccc3n2)c1)NC1CCCC1` [Example 24], the IC50 in experiment [3] was 216 nM; in experiment [6], 234 nM; in experiment [4], 417 nM; in experiment [5] it was 10 to 100 nM.
On to `O=C(COc1cccc(-c2nc3c(c(Nc4ccc(-c5cn[nH]c5)cc4)n2)COC3)c1)NC1CCC1` [Example 31], for which the IC50 in experiment [3] was 294 nM; in experiment [6] it was 256 nM; in experiment [4] it was 385 nM; in experiment [5], 10 to 100 nM. Besides, the “cell death, combination with H2O2” value in experiment [2] (HT1080 cells, 10 μM Ex. 31 + 25 μM H2O2 (FIG. 5B)) is approximately 45%. In addition, the “cell death as single agents” value in experiment [2] (setting [8]) is given as “neither 10 μM Ex. 31 nor 25 μM H2O2 caused cell death”; in experiment [2] (HT-1080 cells) it was “neither Ex. 31 nor ABT-737 (10 M) caused cell death”. Further, the “cell death, combination with ABT-737” value in experiment [2] (HT-1080 cells, 72 hours, Ex. 31 + ABT-737 (FIG. 4B)) is recorded as approximately 60%.
`O=C(COc1cccc(-c2nc3c(c(Nc4ccc(-c5cn[nH]c5)cc4)n2)COC3)c1)NC1CCCC1` [Example 32]: the half-inhibitory concentration (IC50) in experiment [3] is 170 nM; in experiment [6], 123 nM; in experiment [4], 264 nM; in experiment [5], 10 to 100 nM.
Take `CCC(CC)NC(=O)COc1cccc(-c2nc(Nc3ccc(-c4cn[nH]c4)cc3)c3sccc3n2)c1` [Example 181, 2-(3-(4-((4-(1H-pyrazol-4-yl)phenyl)amino)thieno[3,2-d]pyrimidin-2-yl)phenoxy)-N-(pentan-3-yl)acetamide]: the IC50 in experiment [5] lay within 251 to 500 nM.
Regarding `CC(C)NC(=O)COc1cncc(-c2nc(Nc3ccc(-c4cn[nH]c4)cc3)c3ccsc3n2)c1` [Example 182, 2-((5-(4-((4-(1H-pyrazol-4-yl)phenyl)amino)thieno[2,3-d]pyrimidin-2-yl)pyridin-3-yl)oxy)-N-isopropylacetamide], the IC50 in experiment [5] is more than 1000 nM.
On to `CN1CCN(CC(=O)Nc2cccc(-c3nc(Nc4ccc(-c5cn[nH]c5)cc4)c4sccc4n3)c2)CC1` [Example 183, N-(3-(4-((4-(1H-pyrazol-4-yl)phenyl)amino)thieno[3,2-d]pyrimidin-2-yl)phenyl)-2-(4-methylpiperazin-1-yl)acetamide], for which, in experiment [5], the IC50 lay within 501 to 1000 nM.
As for `CN1CCN(CC(=O)Nc2cccc(-c3nc(Nc4ccc(-c5cn[nH]c5)cc4)c4occc4n3)c2)CC1` [Example 184, N-(3-(4-((4-(1H-pyrazol-4-yl)phenyl)amino)furo[3,2-d]pyrimidin-2-yl)phenyl)-2-(4-methylpiperazin-1-yl)acetamide], the IC50 in experiment [5] is 501 to 1000 nM.
Still for that read-out and setting: the result for `CC(C)NC(=O)C(C)Oc1cccc(-c2nc3c(c(Nc4ccc(-c5cn[nH]c5)cc4)n2)COC3)c1` (stereo not shown) [Example 185, 2-(3-(4-((4-(1H-pyrazol-4-yl)phenyl)amino)-5,7-dihydrofuro[3,4-d]pyrimidin-2-yl)phenoxy)-N-isopropylpropanamide] reads more than 1000 nM; that for `CC(C)CNC(=O)C(C)Oc1cccc(-c2nc3c(c(Nc4ccc(-c5cn[nH]c5)cc4)n2)COC3)c1` (stereo not shown) [Example 186, 2-(3-(4-((4-(1H-pyrazol-4-yl)phenyl)amino)-5,7-dihydrofuro[3,4-d]pyrimidin-2-yl)phenoxy)-N-isobutylpropanamide], more than 1000 nM; that for `CCC(C)NC(=O)C(C)Oc1cccc(-c2nc3c(c(Nc4ccc(-c5cn[nH]c5)cc4)n2)COC3)c1` (stereo not shown) [Example 187, 2-(3-(4-((4-(1H-pyrazol-4-yl)phenyl)amino)-5,7-dihydrofuro[3,4-d]pyrimidin-2-yl)phenoxy)-N-(sec-butyl)propanamide], more than 1000 nM.
With `CC(Oc1cccc(-c2nc3c(c(Nc4ccc(-c5cn[nH]c5)cc4)n2)COC3)c1)C(=O)NC(C)(C)C` (stereo not shown) [Example 188, 2-(3-(4-((4-(1H-pyrazol-4-yl)phenyl)amino)-5,7-dihydrofuro[3,4-d]pyrimidin-2-yl)phenoxy)-N-(tert-butyl)propanamide], the half-maximal inhibitory concentration (IC50) in experiment [5] was more than 1000 nM.
For `CC(Oc1cccc(-c2nc3c(c(Nc4ccc(-c5cn[nH]c5)cc4)n2)COC3)c1)C(=O)NCC(C)(C)C` (stereo not shown) [Example 189, 2-(3-(4-((4-(1H-pyrazol-4-yl)phenyl)amino)-5,7-dihydrofuro[3,4-d]pyrimidin-2-yl)phenoxy)-N-neopentylpropanamide], in experiment [5], the IC50 lay within 251 to 500 nM.
In the case of `OO` [Example H2O2, H2O2, reference compound], the “cell death as single agents” value in experiment [2] (setting [8]) was “neither 10 μM Ex. 31 nor 25 μM H2O2 caused cell death”.
On to `CC[C@H]1/C=C/C=C/C[C@@H](C)[C@H](O)[C@@](C)(O)C(=O)[C@@H](C)[C@H](O)[C@@H](C)C(=O)[C@@H](C)[C@H](O)[C@@H](C)/C=C/C(=O)O[C@@H]2[C@H](C)[C@H](CC1)O[C@]1(CC[C@H](C)[C@H](C[C@@H](C)O)O1)[C@H]2C` [oligomycin, Oligomycin, reference compound], for which the “cellular ATP levels, agent alone” value in experiment [5] (alone) was “neither oligomycin alone nor control GLUT1 inhibitors substantially decrease cellular ATP levels”.

One may read the IC50 as the midpoint of a concentration-inhibition curve.
